Measured values as given in US5684151A, “1-arylsulphonyl, arylcarbonyl and 1-arylphosphonyl-3-phenyl-1,4,5,6-tetrahydropyridazines” (priority 1995, dated 1997).
Where two headings read alike, the source gives them in different places.

Columns and labels:
[1] = test system: mouse (MC3T3-E1) and human (TE-85) osteoblast-line cells; assay type: cell-based
Summary of the method: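 MC3T3-E1 or TE-85 cells were plated overnight in DMEM/25 mM HEPES/10% FBS and then preincubated 24 h in 0.1% FBS. Compounds were added for 20 h, followed by a 4 h pulse of 0.4 μCi ^3H-thymidine. Incorporated radioactivity served as the proliferation index, expressed as % of control (control = 100%).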

[2] = target: T1, progestin receptor from rabbit uterus (Oryctolagus cuniculus, UniProt P06186); test: Progestin receptor binding (3H-R5020 displacement); conditions: rabbit uterine cytosol, 4° C., 18 h, read-out: IC50: Binding affinity for the progestin receptor from rabbit uterus
T1 construct: Cytosolic progestin receptor were obtained by mixing rabbit uterine tissue with a Tris buffer; from tissue; host or cells: rabbit uterus cytosol
Summary of the method: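 Rabbit uterine cytosol in Tris buffer pH 7.4 with EDTA, DTT and molybdate was incubated with 3H-R5020 and test compound (5% DMSO final) at 4 °C for about 18 h. Bound ligand was separated with dextran-coated charcoal and counted by scintillation; IC50 is 50% radioligand displacement, with nonspecific binding defined by excess unlabelled ligand.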

T1 sequence (P06186 whole entry): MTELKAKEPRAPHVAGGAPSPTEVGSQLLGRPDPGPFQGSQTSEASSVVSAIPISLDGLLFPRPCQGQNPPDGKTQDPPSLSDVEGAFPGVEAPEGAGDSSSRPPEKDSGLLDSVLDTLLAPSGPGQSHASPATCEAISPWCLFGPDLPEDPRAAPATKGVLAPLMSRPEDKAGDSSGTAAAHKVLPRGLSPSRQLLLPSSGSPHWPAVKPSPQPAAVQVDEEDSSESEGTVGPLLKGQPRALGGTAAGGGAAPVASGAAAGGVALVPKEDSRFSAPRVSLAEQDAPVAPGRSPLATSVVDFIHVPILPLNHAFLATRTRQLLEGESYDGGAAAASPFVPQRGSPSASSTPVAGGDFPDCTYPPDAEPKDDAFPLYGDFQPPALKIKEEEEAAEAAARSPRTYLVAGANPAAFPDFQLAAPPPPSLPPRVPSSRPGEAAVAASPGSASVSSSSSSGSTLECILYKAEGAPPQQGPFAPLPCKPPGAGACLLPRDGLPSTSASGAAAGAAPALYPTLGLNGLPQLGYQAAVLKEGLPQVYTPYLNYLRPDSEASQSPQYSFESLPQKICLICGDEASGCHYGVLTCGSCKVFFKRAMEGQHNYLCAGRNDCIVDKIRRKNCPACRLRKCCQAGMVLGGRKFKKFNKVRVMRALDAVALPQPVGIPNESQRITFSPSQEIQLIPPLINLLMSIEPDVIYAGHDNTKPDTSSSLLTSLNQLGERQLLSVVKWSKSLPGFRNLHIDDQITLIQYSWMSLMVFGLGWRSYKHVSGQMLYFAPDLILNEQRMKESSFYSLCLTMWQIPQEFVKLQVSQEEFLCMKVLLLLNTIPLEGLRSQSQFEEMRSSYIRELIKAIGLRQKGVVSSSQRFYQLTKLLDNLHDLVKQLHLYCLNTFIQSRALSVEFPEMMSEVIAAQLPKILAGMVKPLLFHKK

SMILES | Osteoblast Cell Proliferation, 3H-thymidine incorporation vs control (100%) ([1]; 10^-6) [%] | Osteoblast Cell Proliferation, 3H-thymidine incorporation vs control (100%) ([1]; 10^-7) [%] | Osteoblast Cell Proliferation, 3H-thymidine incorporation vs control (100%) ([1]; 10^-8) [%] | Osteoblast Cell Proliferation, 3H-thymidine incorporation vs control (100%) ([1]; 10^-9) [%] | Osteoblast Cell Proliferation, 3H-thymidine incorporation vs control (100%) ([1]; 10^-10) [%] | IC50 [2] [nM]
O=C(c1ccc(Cl)cc1)N1CCCC(c2ccc(Cl)cc2)=N1 [Compound 193] | 107 | 161 | 162 | 190 | 208 | 10000
COc1ccc(C(=O)N2CCCC(c3ccc(Cl)cc3)=N2)cc1 [Compound 194] | 93 | 130 | 136 | 138 | 144 | 100000
CC(C)(C)c1ccc(C(=O)N2CCCC(c3ccc(Cl)cc3)=N2)cc1 [Compound 195] | 103 | 114 | 125 | 127 | 136 | 100000
O=C(c1ccccc1)N1CCCC(c2ccccc2)=N1 [Compound 196] | 102 | 97 | 102 | 92 | 104 | 100000
CC(C)(C)c1ccc(C(=O)N2CCCC(c3ccccc3)=N2)cc1 [Compound 197] | 87 | 89 | 91 | 81 | 52 | 100000
O=C(c1ccc(Br)cc1)N1CCCC(c2ccc(Cl)cc2)=N1 [Compound 198] | 94 | 97 | 112 | 99 | 85 | 10000
O=C(c1cccc(Cl)c1)N1CCCC(c2ccc(Cl)cc2)=N1 [Compound 199] | 105 | 104 | 96 | 83 | 61 | 100000
O=C(c1ccc(Cl)c(Cl)c1)N1CCCC(c2ccc(Cl)cc2)=N1 [Compound 200] | 97 | 109 | 107 | 120 | 88 | 5000
COc1ccc(C2=NN(C(=O)c3ccc(C(C)(C)C)cc3)CCC2)cc1 [Compound 201] | 89 | 117 | 91 | 69 | 52 | 100000
O=C(c1ccc([N+](=O)[O-])cc1)N1CCCC(c2ccc(Cl)cc2)=N1 [Compound 202] | 98 | 108 | 110 | 116 | 128 | 279
O=C(c1ccc([N+](=O)[O-])cc1)N1CCCC(c2ccc(F)cc2)=N1 [Compound 203] | 73 | 85 | 102 | 98 | 106 | 978
O=C(c1ccc(Cl)cc1)N1CCCC(c2ccc(F)cc2)=N1 [Compound 204] | 79 | 109 | 105 | 101 | 109 | 3000
O=C(c1ccc(Cl)c(Cl)c1)N1CCCC(c2ccc(F)cc2)=N1 [Compound 205] | 92 | 115 | 140 | 141 | 138 | 263
O=C(c1ccc(Cl)c(Cl)c1)N1CCCC(c2ccc(Cl)c(Cl)c2)=N1 [Compound 216] | 105 | 108 | 105 | 96 | 100 | 103
O=C(c1ccc([N+](=O)[O-])cc1)N1CCCC(c2ccc(Cl)c(Cl)c2)=N1 [Compound 217] | 86 | 87 | 91 | 72 | 52 | 102
O=C(c1cccc(C(F)(F)F)c1)N1CCCC(c2ccc(Cl)c(Cl)c2)=N1 [Compound 218] | 112 | 115 | 119 | 107 | 109 | 1980
COP(=O)(c1ccccc1)N1CCCC(c2ccccc2)=N1 (stereo not drawn) [Compound 252] | 75 | 86 | 79 | 97 | 86 | 10000
CCOP(=O)(c1ccccc1)N1CCCC(c2ccccc2)=N1 (stereo not drawn) [Compound 253] | 151 | 124 | 143 | 142 | 157 | 688
CCOP(=O)(c1ccccc1)N1CCCC(c2ccc(Cl)c(Cl)c2)=N1 (stereo not drawn) [Compound 255] | 107 | 125 | 139 | 132 | 145 | 204
CC(C)OP(=O)(c1ccccc1)N1CCCC(c2ccc(Cl)c(Cl)c2)=N1 (stereo not drawn) [Compound 256] | 97 | 100 | 104 | 128 | 116 | 95.5
O=P(OC1CCCC1)(c1ccccc1)N1CCCC(c2ccc(Cl)c(Cl)c2)=N1 (stereo not drawn) [Compound 257] | 86 | 114 | 122 | 112 | 114 | 300
COP(=O)(c1ccccc1)N1CCCC(c2ccc(Cl)c(C(F)(F)F)c2)=N1 (stereo not drawn) [Compound 261] | 98 | 105 | 95 | 100 | 111 | 131
CCOP(=O)(c1ccccc1)N1CCCC(c2ccc(Cl)c(C(F)(F)F)c2)=N1 (stereo not drawn) [Compound 262] | 99 | 104 | 102 | 110 | 141 | 958
